Patent publication US11117915B2, “Antibacterial aminoglycoside analogs” (Cipla USA, Inc., priority 2007, dated 2021)
In brackets after ≈: the same amount, converted by molar mass. Where two headings read alike, the source gives them in different places.

Tests used:
P. aeruginosa ATCC 27853 [1] = experiment: MIC assay, CLSI broth microdilution, P. aeruginosa ATCC 27853 (APAE001); format: cell-based; settings: Pseudomonas aeruginosa
Procedure, shortened: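 CLSI M7-A7 broth microdilution; 2-fold serial dilutions in Mueller Hinton Broth, 1:1 with inoculum; final 5×10^5 CFU/mL; 35° C., 20 h, ambient air. QC strains E. coli ATCC 25922, P. aeruginosa ATCC 27853, S. aureus ATCC 29213.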

P. aeruginosa ATCC 27853 [2] = experiment: murine septicemia model of infection, P. aeruginosa; format: in vivo; settings: mice inoculated IP, single SC or IV dose 1 hour after challenge, mortality 7 days; ED50 values are mg/kg
Experimental: Two models were run on each compound, using E. coli and P. aeruginosa QC bacterial strains. Both studies employed the same design. […] At 1 hour after bacterial challenge, the mice received a single SC or IV […] dose of vehicle or test substance to assess in vivo anti-infective activity. Mortality was recorded once daily for 7 days after bacterial inoculation.

E. coli ATCC 25922 = experiment: MIC assay, CLSI broth microdilution, E. coli ATCC 25922 (AECO001); format: cell-based; settings: Escherichia coli, read-out: MIC AECO001
Procedure, shortened: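 CLSI broth microdilution (M7-A7): two-fold compound dilutions in Mueller Hinton Broth, inoculum 5×10^5 CFU/mL final. Plates incubated 20 hours at 35° C. in ambient air; MIC read as lowest inhibitory concentration.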

[3] = ATCC27853, Table 2, read-out: MIC P. aeruginosa
[4] = APAE001 is ATCC27853, 35° C., 20 hours, read-out: MIC APAE001
[5] = AECO001 is ATCC25922, 35° C., 20 hours
[6] = ATCC27853, 20 h, read-out: MIC APAE001

SMILES | MIC (P. aeruginosa ATCC 27853 [1]; [3]) | MIC (P. aeruginosa ATCC 27853 [1]; [4]) | ED50/MIC P. aeruginosa (P. aeruginosa ATCC 27853 [2]) | MIC (E. coli ATCC 25922; [5]) | MIC (P. aeruginosa ATCC 27853 [1]; [6]) | MIC (E. coli ATCC 25922; ATCC25922, 20 h)
CN[C@@H]1[C@@H](O)[C@@H](O[C@@H]2[C@@H](O)[C@H](O[C@H]3OC(CNCC4CCNCC4)=CC[C@H]3N)[C@@H](N)C[C@H]2NC(=O)[C@@H](O)CN)OC[C@]1(C)O [Example 15, 6′-(Methyl-piperidin-4-yl)-1-(3-amino-2(S)-hydroxy-propionyl)-sisomicin] | 1 to 16 µg/mL (≈ 1.58 to 25.3 µM) | 1 to 16 µg/mL (≈ 1.58 to 25.3 µM) | 1 | < 1 µg/mL |  | 
CN[C@@H]1[C@@H](O)[C@@H](O[C@@H]2[C@@H](O)[C@H](O[C@H]3OC(CN)=CC[C@H]3NCC3CCNC3)[C@@H](N)C[C@H]2NC(=O)[C@@H](O)CCN)OC[C@]1(C)O (stereo partly drawn) [Example 84, 2′-(Methyl-pyrrolidin-3-yl)-1-(4-amino-2(S)-hydroxy-butyryl)-sisomicin] |  |  |  |  | 1 to 16 µg/mL (≈ 1.58 to 25.3 µM) | < 1 µg/mL
CN[C@@H]1[C@@H](O)[C@@H](O[C@@H]2[C@@H](O)[C@H](O[C@H]3OC(CN)=CC[C@H]3NCC3CCCN3)[C@@H](N)C[C@H]2NC(=O)[C@@H](O)CCN)OC[C@]1(C)O (stereo partly drawn) [Example 85, 2′-(Methyl-pyrrolidin-2-yl)-1-(4-amino-2(S)-hydroxy-butyryl)-sisomicin] |  |  |  |  | 1 to 16 µg/mL (≈ 1.58 to 25.3 µM) | < 1 µg/mL
CNCC(=O)N[C@@H]1CC=C(CN)O[C@@H]1O[C@H]1[C@H](O)[C@@H](O[C@H]2OC[C@](C)(O)[C@H](NC)[C@H]2O)[C@H](NC(=O)[C@@H](O)CCN)C[C@@H]1N [Example 86, 2′-(N-Methyl-amino-acetyl)-1-(4-amino-2(S)-hydroxy-butyryl)-sisomicin] |  |  |  |  | 1 to 16 µg/mL (≈ 1.61 to 25.8 µM) | 1 to 16 µg/mL (≈ 1.61 to 25.8 µM)
CN[C@@H]1[C@@H](O)[C@@H](O[C@@H]2[C@@H](O)[C@H](O[C@H]3OC(CN)=CC[C@H]3NC(=O)CN)[C@@H](N)C[C@H]2NC(=O)[C@@H](O)CCN)OC[C@]1(C)O [Example 87, 2′-(2-Amino-acetyl)-1-(4-amino-2(S)-hydroxy-butyryl)-sisomicin] |  |  |  |  | 1 to 16 µg/mL (≈ 1.65 to 26.4 µM) | 1 to 16 µg/mL (≈ 1.65 to 26.4 µM)
CN[C@@H]1[C@@H](O)[C@@H](O[C@@H]2[C@@H](O)[C@H](O[C@H]3OC(CN)=CC[C@H]3NC(=O)C(C)N)[C@@H](N)C[C@H]2NC(=O)[C@@H](O)CCN)OC[C@]1(C)O (stereo partly drawn) [Example 88, 2′-(2-Amino-propionyl)-1-(4-amino-2(S)-hydroxy-butyryl)-sisomicin] |  |  |  |  | 1 to 16 µg/mL (≈ 1.61 to 25.8 µM) | 1 to 16 µg/mL (≈ 1.61 to 25.8 µM)
CN[C@@H]1[C@@H](O)[C@@H](O[C@@H]2[C@@H](O)[C@H](O[C@H]3OC(CN)=CC[C@H]3NC(=O)C(O)CN)[C@@H](N)C[C@H]2NC(=O)[C@@H](O)CCN)OC[C@]1(C)O (stereo partly drawn) [Example 89, 2′-(3-Amino-2-hydroxy-propionyl)-1-(4-amino-2(S)-hydroxy-butyryl)-sisomicin] |  |  |  |  | 1 to 16 µg/mL (≈ 1.57 to 25.2 µM) | < 1 µg/mL
CN[C@@H]1[C@@H](O)[C@@H](O[C@@H]2[C@@H](O)[C@H](O[C@H]3OC(CN)=CC[C@H]3NC(=O)C3CCCN3)[C@@H](N)C[C@H]2NC(=O)[C@@H](O)CCN)OC[C@]1(C)O (stereo partly drawn) [Example 90] |  |  |  |  | 1 to 16 µg/mL (≈ 1.55 to 24.8 µM) | < 1 µg/mL
CN[C@@H]1[C@@H](O)[C@@H](O[C@@H]2[C@@H](O)[C@H](O[C@H]3OC(CN)=CC[C@H]3NCCCN)[C@@H](N)C[C@H]2NC(=O)[C@@H](O)CCN)OC[C@]1(C)O [Example 91, 2′-(3-Amino-propyl)-1-(4-amino-2(S)-hydroxy-butyryl)-sisomicin] |  |  |  |  | < 1 µg/mL | < 1 µg/mL
CN[C@@H]1[C@@H](O)[C@@H](O[C@@H]2[C@@H](O)[C@H](O[C@H]3OC(CN)=CC[C@H]3NC(=O)CC3CNCCO3)[C@@H](N)C[C@H]2NC(=O)[C@@H](O)CCN)OC[C@]1(C)O (stereo partly drawn) [Example 92, 2′-(Morpholin-2-yl-acetyl)-1-(4-amino-2(S)-hydroxy-butyryl)-sisomicin] |  |  |  |  | > 16 µg/mL | < 1 µg/mL
CN[C@@H]1[C@@H](O)[C@@H](O[C@@H]2[C@@H](O)[C@H](O[C@H]3OC(CN)=CC[C@H]3NS(=O)(=O)CCN)[C@@H](N)C[C@H]2NC(=O)[C@@H](O)CCN)OC[C@]1(C)O [Example 93, 2′-(2-Amino-ethyl-sulfonamide)-1-(4-amino-2(S)-hydroxy-butyryl)-sisomicin] |  |  |  |  | 1 to 16 µg/mL (≈ 1.52 to 24.4 µM) | < 1 µg/mL
CN[C@@H]1[C@@H](O)[C@@H](O[C@@H]2[C@@H](O)[C@H](O[C@H]3OC(CN)=CC[C@H]3NCC(C)(C)CN(C)C)[C@@H](N)C[C@H]2NC(=O)[C@@H](O)CCN)OC[C@]1(C)O [Example 94, 2′-(N, N-Dimethyl-2,2-dimethyl-3-amino-propyl)-1-(4-amino-2(S)-hydroxy-butyryl)-sisomicin] |  |  |  |  | > 16 µg/mL | 1 to 16 µg/mL (≈ 1.51 to 24.2 µM)
CN[C@@H]1[C@@H](O)[C@@H](O[C@@H]2[C@@H](O)[C@H](O[C@H]3OC(CN)=CC[C@H]3NC[C@H](C)N)[C@@H](N)C[C@H]2NC(=O)[C@@H](O)CCN)OC[C@]1(C)O [Example 95, 2′-(2(S)-Amino-propyl)-1-(4-amino-2(S)-hydroxy-butyryl)-sisomicin] |  |  |  |  | > 16 µg/mL | < 1 µg/mL
CN[C@@H]1[C@@H](O)[C@@H](O[C@@H]2[C@@H](O)[C@H](O[C@H]3OC(CN)=CC[C@H]3NC3CNC3)[C@@H](N)C[C@H]2NC(=O)[C@@H](O)CCN)OC[C@]1(C)O [Example 96, 2′-(Azetidin-3-yl)-1-(4-amino-2(S)-hydroxy-butyryl)-sisomicin] | 1 to 16 µg/mL (≈ 1.66 to 26.5 µM) | 1 to 16 µg/mL (≈ 1.66 to 26.5 µM) | 3 | < 1 µg/mL |  | 
CN[C@@H]1[C@@H](O)[C@@H](O[C@@H]2[C@@H](O)[C@H](O[C@H]3OC(CN)=CC[C@H]3NCC(N)CO)[C@@H](N)C[C@H]2NC(=O)[C@@H](O)CCN)OC[C@]1(C)O (stereo partly drawn) [Example 97, 2′-(2-Amino-propanol)-1-(4-amino-2(S)-hydroxy-butyryl)-sisomicin] |  |  |  |  | 1 to 16 µg/mL (≈ 1.61 to 25.7 µM) | < 1 µg/mL
CN[C@@H]1[C@@H](O)[C@@H](O[C@@H]2[C@@H](O)[C@H](O[C@H]3OC(CN)=CC[C@H]3NCCO)[C@@H](N)C[C@H]2NC(=O)[C@@H](O)CCN)OC[C@]1(C)O [Example 98, 2′-(2-Hydroxy-ethyl)-1-(4-amino-2(S)-hydroxy-butyryl)-sisomicin] |  |  |  |  | 1 to 16 µg/mL (≈ 1.69 to 27 µM) | 1 to 16 µg/mL (≈ 1.69 to 27 µM)
CN[C@@H]1[C@@H](O)[C@@H](O[C@@H]2[C@@H](O)[C@H](O[C@H]3OC(CN)=CC[C@H]3NC(=O)C(N)CCCN)[C@@H](N)C[C@H]2NC(=O)[C@@H](O)CCN)OC[C@]1(C)O (stereo partly drawn) [Example 99, 2′-(2,5-Diamino-pentoyl)-1-(4-amino-2(S)-hydroxy-butyryl)-sisomicin] |  |  |  |  | 1 to 16 µg/mL (≈ 1.51 to 24.1 µM) | 1 to 16 µg/mL (≈ 1.51 to 24.1 µM)
CN[C@@H]1[C@@H](O)[C@@H](O[C@@H]2[C@@H](O)[C@H](O[C@H]3OC(CN)=CC[C@H]3NCC(O)CO)[C@@H](N)C[C@H]2NC(=O)[C@@H](O)CCN)OC[C@]1(C)O (stereo partly drawn) [Example 100, 2′-(2-Hydroxy-propanol)-1-(4-amino-2(S)-hydroxy-butyryl)-sisomicin] |  |  |  |  | > 16 µg/mL | 1 to 16 µg/mL (≈ 1.61 to 25.7 µM)
CN[C@@H]1[C@@H](O)[C@@H](O[C@@H]2[C@@H](O)[C@H](O[C@H]3OC(CN)=CC[C@H]3NCC(O)CN)[C@@H](N)C[C@H]2NC(=O)[C@@H](O)CCN)OC[C@]1(C)O (stereo partly drawn) [Example 101, 2′-(2-Hydroxy-3-amino-propyl)-1-(4-amino-2(S)-hydroxy-butyryl)-sisomicin] |  |  |  |  | 1 to 16 µg/mL (≈ 1.61 to 25.7 µM) | < 1 µg/mL
CN[C@@H]1[C@@H](O)[C@@H](O[C@@H]2[C@@H](O)[C@H](O[C@H]3OC(CN)=CC[C@H]3NCCCCN)[C@@H](N)C[C@H]2NC(=O)[C@@H](O)CCN)OC[C@]1(C)O [Example 102, 2′-(4-Amino-butyl)-1-(4-amino-2(S)-hydroxy-butyryl)-sisomicin] |  |  |  |  | 1 to 16 µg/mL (≈ 1.61 to 25.8 µM) | < 1 µg/mL
CN[C@@H]1[C@@H](O)[C@@H](O[C@@H]2[C@@H](O)[C@H](O[C@H]3OC(CN)=CC[C@H]3NC[C@H]3C[C@H](N)C3)[C@@H](N)C[C@H]2NC(=O)[C@@H](O)CCN)OC[C@]1(C)O [Example 104, 2′-(Methyl-trans-3-amino-cyclobutyl)-1-(4-amino-2(S)-hydroxy-butyryl)-sisomicin] |  |  |  |  | 1 to 16 µg/mL (≈ 1.58 to 25.3 µM) | < 1 µg/mL
CN[C@@H]1[C@@H](O)[C@@H](O[C@@H]2[C@@H](O)[C@H](O[C@H]3OC(CNC(=N)N)=CC[C@H]3NC(=N)N)[C@@H](N)C[C@H]2N)OC[C@]1(C)O [Example 105, 6′,2′-bis-Guanidinium-sisomicin] |  |  |  |  | > 16 µg/mL | > 16 µg/mL
CN[C@@H]1[C@@H](O)[C@@H](O[C@@H]2[C@@H](O)[C@H](O[C@H]3OC(CNCCO)=CC[C@H]3NC(=N)N)[C@@H](N)C[C@H]2N)OC[C@]1(C)O [Example 106, 6′-(2-Hydroxy-ethyl)-2′-guanidinium-sisomicin] |  |  |  |  | 1 to 16 µg/mL (≈ 1.87 to 30 µM) | < 1 µg/mL
CN[C@@H]1[C@@H](O)[C@@H](O[C@@H]2[C@@H](O)[C@H](O[C@H]3OC(CNC[C@H]4C[C@H](N)C4)=CC[C@H]3NC(=N)N)[C@@H](N)C[C@H]2N)OC[C@]1(C)O [Example 107, 6′-(Methyl-trans-3-amino-cyclobutyl)-2′-guanidinium-sisomicin] |  |  |  |  | < 1 µg/mL | 1 to 16 µg/mL (≈ 1.75 to 27.9 µM)
CNCC1=CC[C@@H](NC(=N)N)[C@@H](O[C@H]2[C@H](O)[C@@H](O[C@H]3OC[C@](C)(O)[C@H](NC)[C@H]3O)[C@H](N)C[C@@H]2N)O1 [Example 108, 6′-Methyl-2′-guanidinium-sisomicin] |  |  |  |  | 1 to 16 µg/mL (≈ 1.99 to 31.8 µM) | < 1 µg/mL
